According to the supplement of paper PMC10307832:

Legend:
Experiment in all cases: relative viability (nuclei count vs DMSO), 5 days (fraction); higher = more cells survive
[1] = compound: CCC1=CN=CN=C1N2CCN(CC2)CC3=NC4=C(N3)C=C(C=C4)C(F)(F)F
Procedure, shortened: (§1)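 Viability was defined as treated-well nuclei divided by vehicle-well nuclei, with the median taken over replicate plates. Cells from lung cancer lines sat overnight at 37 °C in 1536-well plates, received five √10-spaced library-drug doses by pinning on vehicle-anchored plates, and grew 5 days without medium change before one-step fixation, permeabilisation and Hoechst staining, 4× imaging and MetaXpress nuclear counts. Only plates with control CV under 25% and at least one doubling were kept.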

[2] = compound: CCn1c(-c2nonc2N)nc2cnc(Oc3cccc(NC(=O)c4ccc(OCCN5CCOCC5)cc4)c3)cc21
Procedure, shortened: as §1

Mirin = compound: N=C1NC(=O)/C(=C/c2ccc(O)cc2)S1 [Mirin]
Procedure, shortened: as §1

[3] = compound: CCn1c(-c2nonc2N)nc2cnc(Oc3cccc(NC(=O)c4ccc(OCCN5CCOCC5)cc4)c3)cc21 + C[C@@H](Oc1cc(-c2cnn(C3CCNCC3)c2)cnc1N)c1c(Cl)ccc(F)c1Cl [Crizotinib] (partner 1 µM)
Procedure, shortened: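 The day after seeding in 1536-well plates, lung cancer cell lines were treated by pin tool with a single drug, or with a fixed anchor-drug dose together with five library-drug doses (not always all listed) in √10 steps. After 5 days, a combined fix-and-stain solution (final 0.05% Triton X-100, 1% formaldehyde, 1 ug/ml Hoechst) was added. Nuclei counted on 4× images gave relative viability as treated counts over vehicle counts, reported as the median of duplicate plates.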

Row | Cell Line | relative viability ([1]; 0.04 µM) | relative viability ([1]; 0.1265 µM) | relative viability ([1]; 0.4 µM) | relative viability ([1]; 1.265 µM) | relative viability ([1]; 4 µM) | relative viability ([2]; 0.04 µM) | relative viability ([2]; 0.1265 µM) | relative viability ([2]; 0.4 µM) | relative viability ([2]; 1.265 µM) | relative viability ([2]; 4 µM) | relative viability (Mirin; 0.25 µM) | relative viability (Mirin; 0.7906 µM) | relative viability (Mirin; 2.5 µM) | relative viability (Mirin; 7.906 µM) | relative viability (Mirin; 25 µM) | relative viability ([3]; first compound 0.04 µM) | relative viability ([3]; first compound 0.1265 µM) | relative viability ([3]; first compound 0.4 µM) | relative viability ([3]; first compound 1.265 µM) | relative viability ([3]; first compound 4 µM)
1 | HCC-15 | 0.999 | 0.946 | 0.934 | 0.897 | 1.04 | 1.12 | 0.964 | 0.844 | 0.77 | 0.911 | 1.06 | 0.798 | 0.979 | 0.884 | 0.953 | 0.961 | 0.746 | 0.723 | 0.75 | 0.772
2 | HCC-44 | 0.961 | 0.972 | 0.968 | 1.04 | 0.982 | 1.01 | 1.05 | 0.565 | 0.326 | 0.321 | 0.987 | 1.1 | 0.991 | 0.925 | 1.18 | 0.784 | 1.03 | 0.83 | 0.411 | 0.248
3 | HCC-78 | 0.875 | 0.894 | 0.888 | 0.746 | 0.756 | 1.2 | 1.08 | 0.75 | 0.955 | 1.16 | 0.887 | 0.838 | 1.11 | 0.894 | 1.09 | 0.429 | 0.357 | 0.333 | 0.393 | 0.399
4 | HCC-366 | 1 | 0.979 | 0.988 | – | 1.05 | 1.01 | 1.03 | 0.836 | 0.0886 | 0.098 | 1.03 | 0.868 | 0.982 | 1.03 | 0.947 | 0.738 | 0.537 | 0.575 | 0.0457 | 0.0363
5 | HCC-827 | 1.05 | 1.04 | 0.998 | 0.942 | 0.988 | 1.02 | 0.961 | 0.911 | 0.821 | 0.756 | 1.03 | 1.09 | 1.01 | 1.02 | 1.19 | 0.913 | 0.903 | 0.951 | 0.892 | 0.803
6 | HOP-62 | 1.03 | 0.946 | 0.95 | 0.936 | 1.06 | 1.13 | 1.02 | 0.899 | 0.549 | 0.537 | 0.979 | 1.07 | 0.983 | 0.856 | 1.1 | 0.972 | 0.86 | 0.951 | 0.931 | 0.755
7 | IA-LM | 0.839 | 0.96 | 0.891 | 0.931 | 0.89 | 1.34 | 1.06 | 0.998 | 0.952 | 1.02 | 0.962 | 1.07 | 0.928 | 0.653 | 1.18 | 1.01 | 0.831 | 0.859 | 0.699 | 0.758
8 | LC-2-ad | 1 | 0.947 | 0.973 | 0.871 | 0.92 | 1.06 | 0.906 | 0.654 | 0.525 | 0.524 | 1.02 | 0.848 | 0.964 | 0.824 | 1.04 | 0.52 | 0.478 | 0.435 | – | 0.347
9 | LCLC-97TM1 | 0.849 | 0.95 | 1 | 1 | 0.95 | 1.37 | 1.1 | – | 0.899 | 1.03 | 1.1 | 0.706 | 1.13 | 0.621 | 0.677 | 0.278 | 0.524 | – | 0.427 | 0.596
10 | LCLC-103H | 1.02 | 0.927 | 0.928 | 0.841 | 1.11 | 1.09 | 0.981 | 0.783 | 0.705 | 0.775 | 0.99 | 0.977 | 1.05 | 0.929 | 1.07 | 1.08 | 1.09 | 0.962 | 1.01 | 0.967
11 | LK-2 | 0.989 | 1.01 | 0.832 | 0.718 | 0.912 | 1.23 | 1.19 | 0.774 | 0.686 | 0.843 | 0.881 | 0.686 | 1.03 | 0.647 | 0.534 | 0.222 | 0.236 | 0.264 | 0.242 | 0.176
12 | LOU-NH91 | 0.894 | 0.954 | 0.963 | 0.839 | 1.01 | 1.08 | 0.854 | 0.664 | 0.454 | 0.523 | 0.914 | 0.738 | 0.981 | 0.912 | 1.21 | 0.756 | 0.534 | 0.637 | 0.488 | 0.497
13 | NCI-H522 | 0.833 | 1.03 | 0.931 | 0.799 | 0.919 | 1.13 | 0.815 | 0.74 | 0.576 | 0.698 | 0.979 | 0.9 | 1.06 | 0.753 | 0.655 | – | – | – | – | –
14 | NCI-H1395 | 0.837 | 0.86 | 0.943 | 0.769 | 0.892 | 1.13 | 0.837 | 0.769 | 0.469 | 0.563 | 0.948 | – | 0.964 | 0.925 | 0.841 | – | – | – | – | –
15 | NCI-H1623 | 0.897 | 0.996 | 0.873 | 0.832 | 1.17 | 1.13 | 1.02 | 0.974 | 0.902 | 1.08 | 0.967 | 1.08 | 1.04 | 0.823 | 0.738 | – | – | – | – | –
16 | NCI-H1648 | 0.916 | 0.664 | – | 1.1 | 0.611 | 1.27 | 1.34 | 0.982 | 1.35 | 0.875 | 1.04 | 0.726 | 1.09 | 0.552 | 0.709 | – | – | – | – | –
17 | NCI-H1793 | 0.894 | 0.796 | 0.702 | – | 0.796 | 0.897 | 0.838 | 0.526 | 0.587 | 0.483 | 1.1 | – | 0.987 | 0.914 | 0.826 | – | – | – | – | –
18 | NCI-H2342 | 0.936 | 0.888 | 0.864 | 0.543 | 0.72 | 1.04 | 1.05 | 0.874 | 0.748 | 0.804 | 0.998 | 1.02 | 1.03 | 0.668 | 0.888 | – | – | – | – | –
19 | SW 900 | 0.842 | 0.928 | 0.866 | 0.626 | 0.857 | 0.892 | 0.946 | 0.917 | 0.716 | 0.83 | 1 | 0.773 | 0.888 | 0.98 | 0.869 | – | – | – | – | –
